From publication PMC8066102, “Metabolic Profiles of New Unsymmetrical Bisacridine Antitumor Agents in Electrochemical and Enzymatic Noncellular Systems and in Tumor Cells” (Pharmaceuticals, 2021)

Columns and labels:
[1] = system: rat liver microsomes, P450-RLMs Dex-induced; test: Metabolism with rat liver microsomes (Dex-induced P450-RLMs); format: in vitro ADME; settings: 0.05 mM compound, 2 mM NADPH; for conversion rate: 2 mg/mL Dex-induced P450-RLMs, 30 min; for substrate consumption: Dex-induced P450-RLMs, 10 min
Procedure: The initial studies on drug metabolism of new UAs were performed with rat liver microsomes under the optimal conditions. HEPES buffer (0.1 M) at pH 7.4 with 2 mM NADPH and 0.05 mM UAs (C-2028 and C-2045) were selected.
UT-RLMs (2 mg/mL) and P450-RLMs induced with Dex, 3MC, or PB and recombinant P4502C19 and P4503A4 (1 mg/mL) were assayed for activity toward tested UAs as follows. The proteins were incubated in a buffer containing 0.1 M HEPES (pH 7.4), 2 mM MgCl2 with 0.05 mM substrate in total volume 70 µL. Substrates were added also in buffer HEPES, pH 7.4. Reactions were started by the addition of NADPH (2 mM) and were incubated for specified time at 37 °C. The reactions were stopped by the addition of 8.75 µL of 1 M HCl, followed by centrifugation at 13,400 rpm for 10 min to pellet the denatured protein. The supernatant fractions were used for high-performance liquid chromatography (HPLC) analysis. Control reactions omitting substrate were run with each assay. All incubations were performed in two repetitions.

UGT 1A9 = biological target: T1, UGT 1A9 (Homo sapiens, UniProt O60656); test: Glucuronidation with recombinant UGT1A9; format: in vitro ADME; parameters: key: −: the lack of UGT activity; +: the significant UGT activity; settings: 0.05 mM compound, 1 mg/mL UGT, 5 mM UDPGA
T1 construct: His tag; purchased Corning, NY, USA (through DIAG-MED, Poland); host or cells: baculovirus-insect cells (Supersomes); Results say Sf9 cells
T1 sequence (O60656 26-530): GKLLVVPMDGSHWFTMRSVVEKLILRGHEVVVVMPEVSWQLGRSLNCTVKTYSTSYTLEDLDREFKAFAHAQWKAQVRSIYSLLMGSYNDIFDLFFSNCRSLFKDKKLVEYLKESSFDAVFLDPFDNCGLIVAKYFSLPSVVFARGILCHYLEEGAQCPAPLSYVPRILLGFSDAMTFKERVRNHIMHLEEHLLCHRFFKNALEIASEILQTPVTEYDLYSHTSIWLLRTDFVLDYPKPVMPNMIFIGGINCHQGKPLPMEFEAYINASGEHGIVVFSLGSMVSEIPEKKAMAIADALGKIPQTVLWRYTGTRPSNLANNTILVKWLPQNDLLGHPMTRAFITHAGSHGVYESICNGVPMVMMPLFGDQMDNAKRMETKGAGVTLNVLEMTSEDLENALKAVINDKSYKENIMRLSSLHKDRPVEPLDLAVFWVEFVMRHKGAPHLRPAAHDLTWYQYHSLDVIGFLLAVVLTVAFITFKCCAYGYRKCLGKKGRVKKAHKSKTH
Procedure: (§1) Recombinant UGT isoform protein (1 mg/mL) was assayed for activity toward tested UAs as follows. The proteins were incubated in a buffer containing 0.1 M HEPES (pH 7.4), 8 mM MgCl2 and alamethicin (25 μg/mL) with either 0.05 mM substrate in total volume 70 µL (alamethicin was added to permeabilize the membrane). Substrates were also in buffer HEPES, pH 7.4. Reactions were started by the addition of UDPGA (5 mM) and were incubated for specified time at 37 °C. The reactions were stopped by the addition of 8.75 µL of 1 M HCl, followed by centrifugation at 13400 rpm for 10 min to pellet the denatured protein. The supernatant fractions were used for HPLC analysis. Control reactions omitting substrate were run with each assay. All incubations were performed in two repetitions.

UGT2B7 = biological target: T2, UGT2B7 (Homo sapiens, UniProt P16662); test: Glucuronidation with recombinant UGT2B7; format: in vitro ADME; parameters: key: −: the lack of UGT activity; +: the significant UGT activity; settings: 0.05 mM compound, 1 mg/mL UGT, 5 mM UDPGA
T2 construct: purchased Corning, NY, USA (through DIAG-MED, Poland); host or cells: baculovirus-insect cells (Supersomes)
T2 sequence (P16662 24-529): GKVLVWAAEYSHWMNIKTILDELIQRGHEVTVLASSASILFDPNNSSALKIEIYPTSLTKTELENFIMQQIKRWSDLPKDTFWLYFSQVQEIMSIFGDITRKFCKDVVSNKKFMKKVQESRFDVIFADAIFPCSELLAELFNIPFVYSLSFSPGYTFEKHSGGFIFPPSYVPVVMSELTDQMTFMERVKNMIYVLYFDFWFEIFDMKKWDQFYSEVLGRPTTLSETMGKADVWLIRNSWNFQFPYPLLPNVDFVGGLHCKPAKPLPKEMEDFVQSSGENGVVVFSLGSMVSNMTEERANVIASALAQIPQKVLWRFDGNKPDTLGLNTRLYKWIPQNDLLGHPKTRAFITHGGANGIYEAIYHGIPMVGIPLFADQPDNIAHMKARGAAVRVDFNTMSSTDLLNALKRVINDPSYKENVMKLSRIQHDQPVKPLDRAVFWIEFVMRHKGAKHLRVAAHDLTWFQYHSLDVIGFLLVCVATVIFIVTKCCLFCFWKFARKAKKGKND
Procedure: as §1

HT-29 cells = test: Drug metabolism and medium/cell extract distribution in HT-29 colon tumor cells; format: cell-based, human; settings: HT-29, 5 μM; for drug level in cell extract: 3-48 h; for metabolite formation in cells: post-culture media and cell extracts
Procedure: To analyze the transformation products of UAs in colon tumor cell lines, HCT-116 or HT-29 cells were plated in 60 mm Petri dishes; after reaching 80% of confluence, cells were treated with 5/25/50 μM of C-2028, C-2045 or C-2053 (prepared as 10 or 2 mM stock solutions in water) for specified time. Half of medium was added to acetonitrile (1:1, v/v), centrifuged (12 min, 13,400 rpm, 4 °C) and the supernatant was analyzed by HPLC (post-culture medium). Cells remaining on the Petri dishes were collected by gentle scraping, sedimented, washed with ice-cold PBS, suspended in ice-cold chloroform and lysed by sonication for 15 min. After 1 h on ice, insoluble material was removed by centrifugation at 13,000 rpm for 20 min at 4 °C. The sediment was discarded and supernatant (chloroform) were evaporated under pressure. Then, sample was suspended in ice-cold 60% methanol and directly analyzed by HPLC (cell extract).

| conversion rate [1] [%] | substrate consumption [1] | Glucuronidation potency UGT 1A9 (UGT 1A9) | Glucuronidation potency UGT 2B7 (UGT2B7) | SMILES | drug level in cell extract (HT-29 cells) | metabolite formation in cells (HT-29 cells) |
| --- | --- | --- | --- | --- | --- | --- |
| 100 | completely consumed | − | − | CN(CCCNc1c2ccccc2nc2cccc([N+](=O)[O-])c12)CCCNc1ccc2ncn3c4ccccc4c(=O)c1c23 [C-2028] | high up to 24 hours and diminished significantly after 48 hours | did not indicate the presence of metabolites |
| 80 | not metabolized | + | − | Cc1ccc([N+](=O)[O-])c2c(NCCCN(C)CCCNc3ccc4ncn5c6ccc(O)cc6c(=O)c3c45)c3ccccc3nc12 [C-2045] |  |  |
|  |  | − | − | Cc1ccc([N+](=O)[O-])c2c(NCCCN(C)CCCNc3ccc4ncn5c6ccccc6c(=O)c3c45)c3ccccc3nc12 [C-2053] | extremely high level | did not indicate the presence of metabolites |
